This test has as its system influenza virus H1N1 (A/Victoria/07159200/07), oseltamivir-resistant strain. In kind it is cell-based, human influenza virus.

`C[C@@H]1O[C@@H](OC[C@H]2O[C@@H](OCCc3ccc(O)c(O)c3)[C@H](O)[C@@H](O)[C@@H]2OC(=O)/C=C/c2ccc(O)c(O)c2)[C@H](O)[C@H](O)[C@H]1O` [Compound A1, forsythoside A]: the “suppression of virus replication (TCID50) compared with DMSO-treated cells” value is listed as approximately 3 fold.

Values taken from patent US20130029923A1, “Materials and Methods for Prevention and Treatment of Viral Infections” (priority 2009, published 2013).
